# Assay results reported in US11952328B2, “Selective ship inhibitors for treating disease” (THE RESEARCH FOUNDATION FOR THE STATE UNIVERSITY OF NEW YORK, priority 2018, dated 2024).
# Entries after “also recorded” stand apart in the source; their conditions may differ.
# Tests used:
# RMA-Rael cells = assay: Acute rejection of RMA-Rael lymphoma, tumor burden by peritoneal lavage; assay type: in vivo, mice
# Method: FIGS. 4A-4D show the effects of SHIP1 inhibition using 3AC in mice. 5×10^5 GFP-expressing RMA-Rael cells were injected into C57BL/6 (FIG. 4A), RAG1−/− (FIG. 4B), or into C57BL/6 hosts (FIG. 4C-4D) with antibody depleted (NK) or intact (Iso) NK cell compartment. Mice were treated with either SHIP inhibitor or vehicle for two days. Tumor burden was determined by flow cytometric analysis of peritoneal cavity contents recovered by peritoneal lavage performed on the third day. Graphs represent pooled data from two independent experiments using at least 4 SHIP inhibitor-treated mice and 4 vehicle-treated mice in each experiment. FIG. 4A (p=0.0433; Mann-Whitney U test). FIG. 4B (p=0.0007; Mann-Whitney U test). FIG. 4C (p=0.0153; Unpaired t test with Welch's correction). FIG. 4D (p=0.9188. Mann-Whitney U test).
# To determine if acute SHIP inhibitor treatment promoted in vivo clearance of tumor cells expressing a ligand for such receptors, the ability of SHIP inhibitor treatment to increase host rejection of tumor targets in vivo using the C57BL/6-derived H2b T cell lymphoma, RMA-Rael was analyzed. NK cell mediated rejection of RMA- Rael cells requires perforin expression and is independent of IFNγ production, and thus this assay allows for interrogation of a different NK cell effector function than that analyzed in FIG. 3 (Hayakawa, Y. et al., Cutting edge: tumor rejection mediated by NKG2D receptor-ligand interaction is dependent upon perforin. J Immunol. (2002); 169: 5377-538). Mice were challenged with syngeneic tumor cells followed by treatment with 3AC or vehicle for 2 consecutive days. On the third day peritoneal lavage was performed to evaluate tumor burden. […] To assess whether NK cells contributed to acute tumor rejection the same experiment using NK cell depleted C57BL/6 hosts (DNK) was performed. […] This increase in tumor burden was not seen in vehicle treated mice that were also depleted of NK cells (FIG. 4D).
# NK cells and T cells = assay: NK and T cell numbers, maturation and FasL expression by flow cytometry after two-day treatment; assay type: in vivo, mice
# Excerpt: FIGS. 5A-5I show the effects of SHIP1 inhibitor as a chemotherapeutic. […] FIG. 5D and FIG. 5E show the representative histograms and box-and-whisker plots of FasL expression by NK cells from C56BL/6 (p=0.0002; Unpaired t test with Welch's correction) or RAG1−/− (p<0.0001; Mann-Whitney U test) tumor challenged, SHIP inhibitor or vehicle treated hosts. […] (NK cells p=0.0192; Unpaired t test with Welch's correction. T cells p=0.0659; Mann-Whitney U test). Additionally, FIGS. 5A-5G show the analysis by flow cytometry on day 3 after hosts receive SHIP inhibitor or vehicle for two consecutive days. NK cells are defined as NK1.1+CD3ε−. The graphs are representative of at least two independent experiments with at least four SHIP inhibitor and vehicle treated mice. […] Viability is expressed as frequency at a given concentration expressed as a percentage of solvent only treated cells. The kill curve summarizes pooled data from three independent experiments using six replicate wells/concentration with mean ±SEM indicated (n=18 per group. One-way ANOVA with Dunnett's multiple comparisons. 0 pM vs. 20 pM Adjusted p value =0.0001. 0 pM vs. 15 pM Adjusted p value =0.0001. 0 pM vs. 10 pM Adjusted p value =0.0001. 0 pM vs. 7.5 pM Adjusted p value =0.0001. 0 pM vs. 5 pM Adjusted p value =0.0001).
# NK cells are able to directly kill target cells through several different mechanisms including both production of perforin and granzymes and induction of apoptosis via Fas-FasL signaling (Arase, H. et al., Fas-mediated cytotoxicity by freshly isolated natural killer cells. J Exp Med. (1995); 181: 1235-1238; Zamai, L. et al., Natural killer (NK) cell-mediated cytotoxicity: differential use of TRAIL and Fas ligand by immature and mature primary human NK cells. J Exp Med. (1998); 188: 2375-2380). […] SHIP1 was recently shown to be recruited to CD95/Fas to set a threshold for induction of Caspase 8, and thereby, a threshold for induction of apoptosis (Park, M. Y. et al., Impaired T-cell survival promotes mucosal inflammatory disease in SHIP1-deficient mice. Mucosal Immunol. (2014); 7: 1429-1439). This pathway might contribute to 3AC-mediated killing of lymphoma cells in a host-extrinsic fashion and, possibly, even to NK cell mediated clearance of tumor in vivo. To explore this possibility, whether 3AC induces FasL, the death ligand, on cytotoxic host cells present in the tumor site was examined. […] This is consistent with what has been previously reported with multiple myeloma, myeloid leukemias and T cell leukemia, and that others have recently reported in preB ALL (Park, M. Y. et al., Impaired T-cell survival promotes mucosal inflammatory disease in SHIP1-deficient mice. Mucosal Immunol. (2014); 7: 1429-1439; Brooks, R. et al., SHIP1 inhibition increases immunoregulatory capacity and triggers apoptosis of hematopoietic cancer cells. J Immunol. (2010); 184: 3582-3589; Fuhler, G. M. et al., Therapeutic potential of SH2 domain-containing inositol-5′-phosphatase 1 (SHIP1) and SHIP2 inhibition in cancer. Mol Med. (2012); 18: 65-75; Chen, Z. et al, Signalling thresholds and negative B-cell selection in acute lymphoblastic leukaemia. Nature. (2015)) . […] Therefore, the improved tumor clearance and survival following acute 3AC treatment in vivo may result from both a chemotherapeutic effect and enhanced immune control.
structure (smiles),measurement,setting,value
"CC(C)CCC[C@@H](C)[C@H]1CC[C@H]2[C@@H]3CCC4C[C@H](N)CC[C@]4(C)[C@H]3CC[C@]12C (stereo partly drawn) [Compound 3AC, 3-α-aminocholestane]",tumor rejection,RMA-Rael cells; 3AC-treated hosts with intact NK cell compartment vs 3AC hosts depleted of NK cells,significantly greater tumor rejection
same,tumor burden,"RMA-Rael cells; C57BL/6 hosts depleted of NK cells or not, 3AC vs vehicle",profound reduction of tumor burden; also recorded: large reduction in tumor burden
same,lymphoma burden,"RMA-Rael cells; C57BL/6 hosts, 5×10^5 RMA-Rael, 2 consecutive days treatment, lavage on third day, vs vehicle",dramatic reduction
same,"FasL expression, splenic NK cells","NK cells and T cells; C57BL/6 mice, vs vehicle","small, but significantly increased frequency"
same,terminal maturation of the peripheral NK cell compartment,"NK cells and T cells; spleen, naive or tumor challenged C57BL/6 hosts, vs vehicle",significantly increased
same,number of NK cells at the tumor site in the peritoneal cavity,"NK cells and T cells; tumor challenged C57BL/6 hosts, vs vehicle",significantly increased
same,FasL expression of host NK cells and T cells at the tumor site,"NK cells and T cells; tumor challenged hosts, vs vehicle",profound acquisition of FasL
same,number of splenic NK cells,NK cells and T cells; two days of treatment vs vehicle,decreased numbers
